Assay results: US20110166078A1, “OLIGOSACCHARIDE COMPOUNDS FOR USE IN MOBILISING STEM CELLS” (ENDOTIS PHARMA, priority 2008, published 2011)

How the values were obtained:
[1] = tested on: FGF-2-induced NHDF (Normal Human Dermal Fibroblast) cell proliferation; assay: FGF-2-induced NHDF proliferation assay; type: cell-based; settings: compound 0.1 to 30 μM
Procedure: The activities of the compounds of the present invention were tested using a proliferation assay, such as the one described by N. Ali et al., J Pharmacol Sci, 2005, 98, 130-141. A defined number of cells is seeded in each well of a culture plate. In order to stimulate cell proliferation, a growth factor is added in some wells, while others remain unstimulated (basal proliferation conditions). To monitor the effects of substances of interest (oligosaccharides compounds according to the present invention) on basal and growth factor-induced cell proliferation, substances of interest are added at different concentrations (i.e. 0.1, 0.3, 1, 3, 10 or 30 μM) in presence or absence of the growth factor, respectively. After an incubation period of 24 hours, the total number of cells is estimated in all samples (generally through an indirect method, such as incorporation of radioactivity into the newly synthesised DNA or colorimetric assays based on cellular enzyme activities or metabolite production). The total number of cells for the control sample in which no substance of interest nor growth factor have been added is set to 1. The total number of cells in all the other samples is compared to this value in order to obtain the relative proliferation index.
Typically, cells are seeded in 48 or 96-well plates. After 2 h (i.e. the time required for cells to adhere to the support) the normal culture media is replaced by a minimal essential culture media in which cells are grown for 24 h (starvation period). This step is used to reduce cell growth (cell metabolism is slowed down in order to better visualise the growth factor stimulation effect) before adding an angiogenic protein, such as a growth factor i.e. FGF-2 or PDGF-β. No growth factor is added in basal proliferation conditions (independently of the presence or absence of the oligosaccharide of the present invention). […]
Following addition of the angiogenic protein (growth factor) over a 24 h stimulation period, a commercial reagent containing a substrate for a cellular enzyme is added and incubated for couple of hours. The degradation of the substrate by the enzyme leads to the production of a coloured product which is titrated by absorbance measurement. […]
In the following experiments the effects of compounds 240 and 241 (concentrations from 0.1 to 30 μM) were evaluated on FGF-2-induced NHDF (Normal Human Dermal Fibroblast) cell proliferation. […]

[2] = tested on: hematopoietic stem cells (LSK cells) in blood; assay: Hematopoietic stem cell mobilisation, sequential G-CSF, AMD3100 and compound 240; type: in vivo; settings: compound 240 i.v. 15 mg/kg 30 min after AMD3100 s.c. 5 mg/kg, after G-CSF 2.5 μg s.c.; C57BL/6 mice; FIG. 5
Procedure: During cancer treatment, patients receive injections of a cytokine (G-CSF) mobilising stem cells. These stem cells are then collected from the peripheral blood using an apheresis machine. Apheresis is usually performed for several days until enough stem cells have been collected to support treatment with high-dose chemotherapy and/or radiotherapy. In the experiments of the present invention, different doses (5, 15 and 30 mg/kg body weight (bw)) and administration routes (intraperitoneal, intravenous and subcutaneous) were tested along time course experiments in mice (30 min, 1 h, 3 h and 5 h).
C57BL/6 mice (8-10 weeks old, obtained from Jackson Laboratory, USA) were housed 15 days in the CEA/DSV/iRCM animal facilities. Animal care was in accordance with French Government procedures (Services Veterinaires de la Sante et de la Production Animale, Ministere de l'Agriculture, France).
i) intravenously: Anesthetized mice were placed on their left side. Injection of 100 μl of compound was performed with insulin syringe into the retro-orbital sinus of the right eye of mice. […]
Two months aged-C57BL/6 mice were injected s.c. with 2.5 μg of G-CSF twice a day for 2 days. […] White blood cells were counted and labeled with lineage-PE-Cy7 (L), Sca-PE (S), and cKit-APC (K) antibodies for data acquisition by cytometry. […]

With C#CCCCOC1OC(COS(=O)(=O)[O-])C(OC2OC(C(=O)[O-])C(OC3OC(COS(=O)(=O)[O-])C(OC4OC(C(=O)[O-])C(OC5OC(COS(=O)(=O)[O-])C(OC6OC(C(=O)[O-])C(OC7OC(COS(=O)(=O)[O-])C(OC8OC(C(=O)[O-])C(OCc9ccccc9)C(OCc9ccccc9)C8OS(=O)(=O)[O-])C(OCc8ccccc8)C7NS(=O)(=O)[O-])C(OCc7ccccc7)C6OS(=O)(=O)[O-])C(OCc6ccccc6)C5NS(=O)(=O)[O-])C(OCc5ccccc5)C4OS(=O)(=O)[O-])C(OCc4ccccc4)C3NS(=O)(=O)[O-])C(OCc3ccccc3)C2OS(=O)(=O)[O-])C(OCc2ccccc2)C1NS(=O)(=O)[O-].[Na+].[Na+].[Na+].[Na+].[Na+].[Na+].[Na+].[Na+].[Na+].[Na+].[Na+].[Na+].[Na+].[Na+].[Na+].[Na+] (stereo not drawn) [Compound 240] the “inhibition of FGF-2-induced fibroblast proliferation” value ([1]; FGF-2 5 ng/ml, FIGS. 6-7) was “inhibit FGF-2-induced fibroblast proliferation (starting in the micromolar range)”, the “basal NHDF proliferation” value ([1]; control conditions, no growth factor) was “did not seem to be affected” and the “HSCs mobilized, times more than with G-CSF+AMD3100 combination” value [2] was “About 3 times”.
